According to patent US20250381181A1, “CANCER TREATMENT AGENT INCLUDING MALT1 INHIBITING DRUG AS ACTIVE INGREDIENT” (ONO PHARMACEUTICAL CO., LTD., priority 2022, published 2025):

Tests used:
[1] = system: Human CD79 mutation-positive DLBCL cell line; test: Combination of Compound A and Btk inhibitor or Bcl-2 inhibitor, cell viability (Cell Counting Kit-8); assay type: cell-based; conditions: combined treatment with Compound A (10, 30 or 100 nmol/L), 6 days
From the text: (§1) Treatment concentrations of Compound A were 10, 30 or 100 nmol/L, and treatment concentrations of the Btk inhibitor and the Bcl-2 inhibitor were set between 0.3 to 300 nmol/L or 0.003 to 10 nmol/L, respectively.

[2] = system: Human MCL cell line; test: as above; assay type: cell-based; conditions: combined treatment with Compound A (10, 30 or 100 nmol/L), 6 days
From the text: as §1

[3] = system: Human CD79 mutation-positive diffuse large B-cell lymphoma cell line; test: Combination of Compound A and each anticancer agent, cell viability (Cell Counting Kit-8); conditions: combined treatment with Compound A (3, 10, 30 or 100 nmol/L); CD79 mutation-positive DLBCL; 6 days
Experimental: (§6) Human CD79 mutation-positive diffuse large B-cell lymphoma cell lines and human mantle cell lymphoma cell lines were used. The cells were subcultured using RPMI1640 containing 10% non-mobilized fetal bovine serum (hereinafter, the medium) under conditions of 5% CO2 and 37° C.
(§7) The cells suspended in the medium were seeded in 96 well plates at a density of 2500 or 5000 cells/100 μL per well. […] After completion of the culture, the number of surviving cells was measured using Cell Counting Kit-8 (DOJINDO) according to the procedure of the kit.

[4] = system: Human mantle cell lymphoma cell line; test: as above; conditions: combined treatment with Compound A (3, 10, 30 or 100 nmol/L), 6 days
Experimental: as §6, §7

[5] = system: human CD79 mutation-positive diffuse large B-cell lymphoma cell line; test: Antitumor effect in mouse subcutaneous transplantation model; assay type: in vivo; conditions: orally for 21 days; Compound A 10 mg/kg twice a day, Ibrutinib 10 mg/kg once a day; subcutaneous tumor in NOG mice
Experimental: A human CD79 mutation-positive diffuse large B-cell lymphoma cell line was used. The cells were subcultured using Iscove's modified Dulbecco's medium containing 20% inactivated calf serum and 0.5 mmol/L Monothioglycerol under conditions of 5% CO2 and 37° C.
The cells were suspended in HBSS:Matrigel=1:1 and implanted subcutaneously in the abdomen of 7-week-old female NOG mice at 1×10^6 cells/mouse. The tumor volume was measured using a caliper, and calculated by a calculation formula of tumor volume=(major tumor diameter×minor tumor diameter×minor tumor diameter)/2. At the time when the tumor volume reached about 120 mm^3, grouping was performed into 4 groups of 6 mice per group. Compound A was orally administered at a dose of 10 mg/kg twice a day for 21 days, and Ibrutinib was orally administered at a dose of 10 mg/kg once a day for 21 days. Also, the combined administration group was orally administered with 10 mg/kg of Compound A and 10 mg/kg of ibrutinib. The control group was orally administered with a 0.5% methylcellulose solution. After grouping, tumor volume measurements were performed twice a week. T/C (%) was used as an index of the antitumor effect.
Regarding the amount of tumor volume change during the administration period of each group, the combined antitumor effect of Compound A and Ibrutinib was analyzed by a statistical method of two-way ANOVA of EZR (ver. 1.54) software.

[6] = system: Human CD79 mutation-positive diffuse large B-cell lymphoma cell line 2; test: Combined effect on cell viability, Compound A and Btk inhibitor (CellTiter-Glo, in vitro); assay type: cell-based; conditions: combined treatment with Compound A, 6 days of culture
Experimental: (§2) Using Ibrutinib as a Btk inhibitor, the combined effect on cell viability with Compound A was evaluated in vitro.
(§3) After 6 days of culture from the addition, the cell viability was evaluated as follows.
(§4) Cell viability was evaluated by each treatment by measuring intracellular adenosine triphosphate (ATP) using CellTiter-Glo. That is, 100 μL of CellTiter-Glo solution per well was added to each well and incubated at room temperature for 15 minutes, and then chemiluminescence was measured. The average value of each combination was calculated from the obtained data, and a concentration reaction curve of the cell viability of each drug alone or in combination was created with the luminescence intensity in cells treated with DMSO alone as 100%.
(§5) The half maximal inhibitory concentration (IC50) for each drug was determined using median effect analysis software CalcuSyn 2.0 (CalcuSyn, Inc).

[7] = system: Human CD79 mutation-positive diffuse large B-cell lymphoma cell line 1; test: as above; assay type: cell-based; conditions: combined treatment with Compound A
Experimental: as §2, §3, §4, §5

[8] = system: Human CARD11 mutation-positive DLBCL cell line; test: Combination of Compound A and Bcl-2 inhibitor, cell viability (Cell Counting Kit-8); assay type: cell-based; conditions: combined treatment with Compound A (10, 30 or 100 nmol/L), 6 days
From the text: as §1

Compound	Combination index (CI) value, median [3]	Combination index (CI) value, median [4]	also measured
O=C(c1ccc(Oc2ccccc2)cc1Cl)c1c[nH]c2ncnc(N[C@@H]3CC[C@@H](CO)OC3)c12 [ARQ-531]	–	–	Combination index (CI) value, median [1]: 0.701; Combination index (CI) value, median [2]: 0.928
CC#CC(=O)N1CCC[C@H]1c1nc(-c2ccc(C(=O)Nc3ccccn3)cc2)c2c(N)nccn12 [Acarabrutinib]	–	–	Combination index (CI) value, median [1]: 0.839; Combination index (CI) value, median [2]: 0.956
Nc1cc(C(F)(F)F)c(-c2cc(N3CCOCC3)nc(N3CCOCC3)n2)cn1 [BKM120]	0.729	–	–
C=C(c1ccc(C(=O)O)cc1)c1cc2c(cc1C)C(C)(C)CCC2(C)C [Bexarotene]	–	0.276	–
Cc1cc(-c2nc(C(=O)Nc3cc4oc(N5CCOCC5)nc4nc3N3CC[C@@H](O)C3)co2)ccn1 [CA-4948]	0.905	0.846	–
CO[C@@H](C)c1c(NC(=O)Nc2cnc(-n3nccn3)c(C(F)(F)F)c2)cnc2ccc(Cl)nc12 [Compound A, (S)—N-(6-chloro-4-(1-methoxyethyl)-1,5-naphthyridin-3-yl)-N′-(6-(2H-1,2,3-triazol-2-yl)-5-(trifluoromethyl)pyridin-3-yl)urea]	–	–	T/C (%) [5]: 49.8%
COc1cccc2c1C(=O)c1c(O)c3c(c(O)c1C2=O)C[C@@](O)(C(=O)CO)C[C@@H]3O[C@H]1C[C@H](N)[C@H](O)[C@H](C)O1 [Doxorubicin]	0.953	0.932	–
Cn1cc(C2=C(c3cn(C4CCN(Cc5ccccn5)CC4)c4ccccc34)C(=O)NC2=O)c2ccccc21 [Enzastaurin]	0.854	0.842	–
CO[C@H]1C[C@@H]2CC[C@@H](C)[C@@](O)(O2)C(=O)C(=O)N2CCCC[C@H]2C(=O)O[C@H]([C@H](C)C[C@@H]2CC[C@@H](OCCO)[C@H](OC)C2)CC(=O)[C@H](C)/C=C(\C)[C@@H](O)[C@@H](OC)C(=O)[C@H](C)C[C@H](C)/C=C/C=C/C=C/1C [Everolimus]	0.464	0.225	–
CS(=O)(=O)N1CCN(Cc2cc3nc(-c4cccc5[nH]ncc45)nc(N4CCOCC4)c3s2)CC1 [GDC-0941]	0.873	0.694	–
C=CC(=O)N1CCC[C@@H](n2nc(-c3ccc(Oc4ccccc4)cc3)c3c(N)ncnc32)C1 [Ibrutinib]	–	–	combination index (CI), median [6]: 0.504; combination index (CI), median ([7]; cell line 1, 6 days of culture): 0.629; median of CI ([7]; in each cell line (cell lines 1 and 2), synergistic effect): less than 1; T/C (%) [5]: 63.1%
CC[C@H](Nc1ncnc2[nH]cnc12)c1nc2cccc(F)c2c(=O)n1-c1ccccc1 [Idelalisib]	0.528	0.457	–
COc1ccc(F)cc1C(=O)NCc1ccc(-c2nn([C@@H](C)C(F)(F)F)c(N)c2C(N)=O)cc1 [LOXO-305]	–	–	Combination index (CI) value, median [1]: 0.764; Combination index (CI) value, median [2]: 0.646
Nc1cccc2c1CN(C1CCC(=O)NC1=O)C2=O (stereo not drawn) [Lenalidomide]	0.736	0.190	–
NC1(c2ccc(-c3nc4ccn5c(=O)[nH]nc5c4cc3-c3ccccc3)cc2)CCC1 [MK-2206]	0.626	0.915	–
NC(=O)c1cnc(N[C@@H]2CCCC[C@@H]2N)nc1Nc1cccc(-n2nccn2)c1 [PRT062607]	0.630	0.820	–
CC(=O)c1c(C)c2cnc(Nc3ccc(N4CCNCC4)cn3)nc2n(C2CCCC2)c1=O [Palbociclib]	0.658	0.443	–
C[C@]12C=CC(=O)C=C1CC[C@@H]1[C@@H]2[C@@H](O)C[C@@]2(C)[C@H]1CC[C@]2(O)C(=O)CO [Prednisolone]	0.168	0.854	–
CN1CCN(c2nc(C3=C(c4c[nH]c5ccccc45)C(=O)NC3=O)c3ccccc3n2)CC1 [Sotrastaurin]	0.896	0.775	–
CC#CC(=O)N1CC[C@@H](n2c(=O)n(-c3ccc(Oc4ccccc4)cc3)c3c(N)ncnc32)C1 [Tirabrutinib]	–	–	Combination index (CI) value, median [1]: 0.761; Combination index (CI) value, median [2]: 0.822
CC(=O)Nc1cccc(-n2c(=O)n(C3CC3)c(=O)c3c(Nc4ccc(I)cc4F)n(C)c(=O)c(C)c32)c1 [Trametinib]	0.218	0.971	–
Nc1cc(F)ccc1NC(=O)c1ccc(CNC(=O)/C=C/c2cccnc2)cc1 [Tucidinostat]	0.756	0.668	–
CC1(C)CCC(CN2CCN(c3ccc(C(=O)NS(=O)(=O)c4ccc(NCC5CCOCC5)c([N+](=O)[O-])c4)c(Oc4cnc5[nH]ccc5c4)c3)CC2)=C(c2ccc(Cl)cc2)C1 [Venetoclax]	–	–	Combination index (CI) value, median [1]: 0.5985; Combination index (CI) value, median [2]: 0.372; Combination index (CI) value, median [8]: 0.5995
O=C(CCCCCCC(=O)Nc1ccccc1)NO [Vorinostat]	0.930	0.866	–
CN1CCC(c2ccccc2CC(C)(C)Nc2nc(N3CCOCC3)nc(-n3c(C(F)F)nc4ccccc43)n2)CC1 [Zandelisib]	0.494	0.698	–
C=CC(=O)N1CCC([C@@H]2CCNc3c(C(N)=O)c(-c4ccc(Oc5ccccc5)cc4)nn32)CC1 [Zanubrutinib]	–	–	Combination index (CI) value, median [1]: 0.811; Combination index (CI) value, median [2]: 0.75
Irinotecan (SN-38)	0.993	0.903	–
